Values of other authors, collected in patent publication US9040021B2, “Heterocyclic compounds as imaging probes of tau pathology” (GE Healthcare Limited, priority 2010, dated 2015).

Biological target: tau aggregates (Homo sapiens, UniProt P10636)
Details: in vitro; tau aggregates vs Aβ1-42 amyloid; fold selectivity

tau aggregates, sequence (P10636 whole entry): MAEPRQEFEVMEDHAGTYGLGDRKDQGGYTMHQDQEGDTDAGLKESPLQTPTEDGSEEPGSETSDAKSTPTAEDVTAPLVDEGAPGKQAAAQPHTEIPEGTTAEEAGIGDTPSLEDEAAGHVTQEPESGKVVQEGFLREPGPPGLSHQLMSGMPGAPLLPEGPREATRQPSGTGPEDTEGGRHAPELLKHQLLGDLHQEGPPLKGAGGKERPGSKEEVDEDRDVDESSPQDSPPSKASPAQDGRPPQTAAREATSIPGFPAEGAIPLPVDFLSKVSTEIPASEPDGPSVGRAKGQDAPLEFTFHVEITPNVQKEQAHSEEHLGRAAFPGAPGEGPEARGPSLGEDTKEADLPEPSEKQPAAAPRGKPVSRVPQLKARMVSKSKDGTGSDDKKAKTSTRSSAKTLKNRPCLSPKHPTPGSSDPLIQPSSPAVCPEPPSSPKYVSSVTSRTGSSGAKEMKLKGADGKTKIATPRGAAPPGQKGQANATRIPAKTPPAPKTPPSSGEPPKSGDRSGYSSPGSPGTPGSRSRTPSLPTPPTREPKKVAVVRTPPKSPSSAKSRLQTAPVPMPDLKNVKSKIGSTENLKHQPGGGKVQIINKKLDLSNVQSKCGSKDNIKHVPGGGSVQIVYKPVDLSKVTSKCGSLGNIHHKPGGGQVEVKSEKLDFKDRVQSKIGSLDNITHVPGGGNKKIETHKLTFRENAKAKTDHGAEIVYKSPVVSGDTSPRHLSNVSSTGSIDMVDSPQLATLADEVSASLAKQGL

SMILES	selectivity for tau aggregates over Aβ1-42 amyloid
CNc1ccc(-c2ccc3ccccc3n2)cc1 [BF-158, 2-(4-(methylamino)phenyl)quinoline]	threefold
Nc1ccc(-c2ccc3ccccc3n2)cc1 [BF-170, 2-(4-(amino)phenyl)quinoline]	threefold
